Reference: patent US8853227B2, “Methotrexate adjuvants to reduce toxicity and methods for using the same” (Tosk, Incorporated, priority 2008, dated 2014)

Experiments:
Drosophila melanogaster = experiment: Fly Study I (protection from MTX-induced lethality); format: in vivo; details: for Flies Alive (Number): Fly Study I method, test compound + MTX (MTX Alone: no adjuvant), Table 3
Experimental: In this study, Drosophila melanogaster eggs (50 eggs per vial) were treated with either 0.005 mg TK-112690+0.4 mg MTX (Group 1), 0.01 mg TK-112690+0.4 mg MTX (Group 2), 0.04 mg TK-112690+0.4 mg MTX (Group 3), 0.1 mg TK-112690+0.4 mg MTX (Group 4), 0.4 mg MTX alone (Group 5) or saline blank (Group 6). Two vials of eggs for each dose group were evaluated for viability (viable flies plus pupae).
The efficacy of cancer chemotherapy can be improved if agents are available to reduce the adverse events associated with treatment with cytotoxic agents. To this end, Drosophila melanogaster (commonly know as the fruit fly) is an ideal organism to screen chemical compounds for such side-effect-reducing agents. This study is aimed at finding a dose of a 2,2′-anhydropyrimidine test article that protects against MTX-induced lethality in insects.
Increasing amounts of a 2,2′-anhydropyrimidine test article (typically 0.03 to 0.1 mg) are mixed in an aqueous solution with 0.3 (or 0.4) mg MTX. Four milliliters (mL) of a 2,2′-anhydropyrimidine test article+MTX solutions are added to an appropriate amount of instant fly medium. Fruit fly eggs are added to a 2,2′-anhydropyrimidine test article+MTX treated medium and incubated for up to 31 days. After the 31 day incubation, each assay is scored by the number of mature fly and pupae per vial.
The assays are set up in clear sterile polystyrene narrow diameter vials from Applied Scientific (Hampton, N.H.). Vials are stored in trays and incubated in a darkened 25° C. incubator.
Reagents and materials used are: 50 mg/mL MTX in H2O (pH 8), 20 mg/mL of the 2,2′-anhydropyrimidine test article in H2O, water, sterile polystyrene narrow diameter vials from Applied Scientific, Instant Drosophila Food Medium, Oregon-R Drosophila melanogaster, 25° C. incubator, and 15 mL polystyrene conical tubes
Each assay is performed in a separate fly vial. Increasing amounts of a 2,2′-anhydropyrimidine (0.005 to 1.0 mg) are tested for MTX side-effect-reduction on fly eggs. Amounts of the 2,2′-anhydropyrimidine test article are drawn from a 20 mg/mL stock solution dissolved in water. Nine mL of the 2,2′-anhydropyrimidine+0.3 (or 0.4) mg MTX solutions are pre-mixed with water in a 15 mL conical tube. Duplicate assays receive 4 mL of the 2,2′-anhydropyrimidine test article+0.3 (or 0.4) mg MTX solutions. Pre-measured amounts of instant drosophila medium are added to each assay to achieve optimal hydration level. Controls are (1) 4 mL water alone and (2) 0.3 (or 0.4) mg MTX alone. Precisely 50 fly eggs aged for ˜18 hours are added to each assay. Assays are capped with a fitted plug and incubated for 30 days in a darkened 25° C. incubator. Assays are scored by the number of dead pupae or adult flies per vial.

CCRF-CEM cells = experiment: Cell Culture Study I (MTX cytotoxicity, alamarBlue); format: cell-based, human; details: 72 hours
Experimental: In this study, CCRF-CEM cells purchased from ATCC were cultured and then 12 tubes containing approximately 10^6 cells each treated for 72 hours with media (Group1), MTX 0.03 μM (Group2), MTX+Leucovorin 1 μM (Group3), MTX+Leucovorin 10 μM (Group4), MTX+Leucovorin 100 μM (GroupS), MTX+TK-112690 1 μM (Group6), MTX+TK-112690 10 μM (Group7) and MTX+TK-112690 100 μM (Group8). […] Viability was measured as percent reduction of alamarBlue absorbance.
The tumor cell line CCR-CEM (human T-cell acute lymphoblastic leukemia) is obtained from American Type Culture Collection (CRL-1593.2) and cultured in accordance with the product information sheet with the following exceptions: 55.3 cm^2 Petri dishes are used instead of 75 cm^2 culture flasks, and 1% penicillin-streptomycin solution (HyClone SV30010) and 1% GlutaMAX™ (Gibco 35050) are added to the culture medium.
TK-112690, the representative 2,2′-anhydropyrimidine test article, is dissolved in 40% DMSO, sterile filtered then diluted with sterile distilled water to obtain initial working solutions of 10, 100 and 1000 μM. In testing, a 100 fold dilution is made in culture media to give final assay concentrations of 0.1, 1.0 and 10.0 μM. MTX (SAFC Biosciences M8407) is dissolved in sterile distilled water and 5 N NaOH then sterile filtered. The final pH of the stock solution is 7.8 and working solutions are made with sterile distilled water for final assay concentrations of 30, 3.0, 0.3, 0.03 and 0.003 μM. Leucovorin (Sigma F-7878) is dissolved in sterile distilled water, sterile filtered and diluted with sterile distilled water for final assay concentrations of 0.1, 1.0 and 10.0 μM.
Aliquots of 100 μL of cell suspension are plated in 96 well microtiter plates (Corning costar 3595) and placed in an atmosphere of 5% CO2 at 37° C. (Fisher Scientific Isotemp 3500 CO2 Incubator). After 24 hours, 100 μL of growth medium [RPMI-1640 w/L-glutamine (Cambrex 12-702Q) fortified with sodium pyruvate (HyClone SH30239.01), fetal bovine serum (SAFC Biosciences 12107C) and HEPES buffer (Gibco 15630)] and 2 μL of test solution or vehicle are added respectively per well and the plates incubated for an additional 72 hour incubation. MTX is evaluated at concentrations of 0.003, 0.03, 0.30 and 3.0 μM alone or in combination with either a 2,2′-anhydropyrimidine test article or Leucovorin at concentrations of 0.1, 1.0, 10.0 μM. At the end of incubation, the efficacy of anti-cell proliferation is determined by optical absorbance at A=570 and 600 nm [Spectramax 250 (Molecular Devices)] in accordance with the standard alamarBlue™ (Biosource) protocol.
Group 1 is the cell control (media treated). Group 2 corresponds to cells treated with 0.03 μM MTX. Group 3 are cells treated with 1.0 μM Leucovorin. Group 4 are cells treated with 0.1 μM Leucovorin. […]

Row | Structure (SMILES) | Flies Alive (Number) (Drosophila melanogaster) | further results
1 | Cc1ccc(SCc2cn3c(nc2=O)O[C@H]2C(O)[C@@H](CO)O[C@H]23)cc1 (some centres unmarked) [TK-000016] | 0 | 
2 | COCc1cn2c(nc1=O)O[C@H]1[C@H](O)[C@@H](CO)O[C@H]12 [TK-000009] | 5 | activity in the Fly model for protection against MTX-induced lethality (Drosophila melanogaster): active
3 | Nc1nc2c(c(=O)[nH]1)N(C=O)C(CNc1ccc(C(=O)N[C@@H](CCC(=O)O)C(=O)O)cc1)CN2 (some centres unmarked) [Leucovorin, reference compound] |  | cell viability, Leucovorin+MTX versus MTX alone (protection by positive control) (CCRF-CEM cells; 0.03 μM MTX + Leucovorin, p<0.000 and 0.002): statistically different; cell viability, test article alone versus control (CCRF-CEM cells; without MTX): not statistically different than control
4 | CC(=N)OCc1cn2c(nc1=O)O[C@H]1[C@H](O)[C@@H](CO)O[C@H]12 [TK-000010] | 0 | 
5 | O=c1nc2n(cc1NCc1ccccc1)[C@@H]1O[C@H](CO)[C@@H](O)[C@@H]1O2 [TK-000006] | 0 | 
6 | CCOCc1cn2c(nc1=O)O[C@H]1[C@H](O)[C@@H](CO)O[C@H]12 [TK-000007] | 3 | 
7 | Cc1cn2c(nc1=O)O[C@H]1[C@H](O)[C@@H](CN=[N+]=[N-])O[C@H]12 [TK-000011] | 0 | 
8 | Cc1cn2c(nc1=O)O[C@H]1C(O)[C@@H](CF)O[C@H]12 (some centres unmarked) [TK-000015] | 0 | 
9 | O=c1nc2n(cc1COCc1ccccc1)[C@@H]1O[C@H](CO)[C@@H](O)[C@@H]1O2 [TK-000008] | 0 | 
